Results on five molecules are retold here after patent publication US20050180972A1, “Anti-CD20 antibody-drug conjugates for the treatment of cancer and immune disorders” (priority 2002, published 2005).

Assay [1] concerns Daudi, Ramos, Raji and Karpas 299 cells. The assay can be described thus: Relative potency of unconjugated drugs versus doxorubicin across cell lines. The assay is classed as cell-based, human. How it is done:
(§1) Cytotoxicity assays. Cytotoxicity was measured by Alamar Blue (Biosource International) dye reduction assay according to manufacturers directions (Nakayama et al. Journal Of Immunological Methods 1997; 204:205-208). Briefly, a 40% solution (w/v) of Alamar Blue was freshly prepared in complete media just prior to adding to cultures. The Alamar Blue solution was added at cell densities of 10^5 cells/ml for the Ramos, Raji, and Karpas cell lines, and at a cell density of 4×10^5 cells/ml for the Daudi cell line. After 92 h following drug exposure. Alamar Blue solution was added to cells to constitute 10% culture volume. The cells were incubated for 4 h and dye reduction measured on a Fusion HT fluorescent plate reader (Packard Instruments, Meriden, Conn.).
(§2) Cell sensitivity to unconjugated drugs. The cells were initially evaluated for relative sensitivity to doxorubicin and MMAE. Cells were exposed to drugs for 2 h, washed, replated in fresh media and incubated for an additional 92 h. Four h. prior to harvest, cells were incubated with Alamar Blue, a reducible dye that provides readout of cell viability (Nakayarna et al., 1997).

A further assay deals with Daudi cells. The assay can be described thus: Alamar Blue cytotoxicity assay, Daudi cells. Particulars: for pIC50: Homo sapiens; for IC50: ADC, 2 h binding. The assay is classed as cell-based, human. Here is the method: as §1, §2
(§3) Sensitivity of cells to ADCs. […] As described above, 4 h prior to harvest, cells were incubated with Alamar Blue and cell viability assessed.

In another assay the test system is Raji cells. Nature of the assay: Alamar Blue cytotoxicity assay, Raji cells. The class given is cell-based, human. The settings on record: for pIC50: Homo sapiens. How it is done:
as §1, §2, §3

The next assay deals with Karpas 299 cells. Nature of the assay: Alamar Blue cytotoxicity assay, CD20-negative Karpas 299 cells. The class given is cell-based, human. The settings on record: for pIC50: Homo sapiens, KARPAS-299; for IC50: ADC, 2 h binding, Karpas. How it is done: as §1, §2, §3
For assay [2], the system named is Ramos cells. The assay can be described thus: Alamar Blue cytotoxicity assay, Ramos cells. The assay is classed as cell-based, human. The settings on record: for pIC50: Homo sapiens. Here is the method:
as §1, §2, §3
In general terms: The colour change of resazurin is a common sign of viable cells or microbes.

Assay [3] relates to Ramos cells. The assay can be described thus: Confocal microscopy for mAb/ADC trafficking. Particulars: 5 ug/ml, 37 C, 1, 4 and 24 h.
From the text: Microscopy for mAb/ ADC trafficking. […] At the designated times cells were harvested by centrifugation, fixed and permeabilized by paraformaldehyde/saponin (Cytofix/Cytoperm™ Buffer, BD PharMingen, San Diego, Calif.). After washing with the Perm/Wash™ buffer (BD PharMingen) and blocking with goat IgG, cells were stained with a goat anti-human IgG Fc_specific FITC conjugate (Jackson ImmunoResearch Laboratories, Inc., West Grove, Pa.). The localization of fluorescence signals was then visualized using a Deltavision confocal fluorescence microscope equipped with digital analysis software.
Internalization of the mAb-drug conjugate.
Another assay has as its system Ramos NHL cells. The assay can be described thus: Subcutaneous Ramos NHL xenograft model. The class given is in vivo, SCID mice. Particulars: intraperitoneal, every 4 days for 3 injections, 3 mg/kg.
A further assay deals with CD20-positive cells. Nature of the assay: Cytotoxicity of ADCs, summary statement. The class given is cell-based, human. The settings on record: following brief exposure. Here is the method: as §1, §3
Assay [4] deals with Ramos cells. Nature of the assay: Induction of apoptosis, Annexin V-FITC / propidium iodide staining. The settings on record: 5 μg/ml, after 24 hr of incubation.
Method: Selective induction of Apoptosis. […] At the designated times cells were removed from cultures and stained with Annexin V-FITC and propidium iodide (PI) as described in Materials and Methods. The range of apoptotic cells (Annexin V^+/PI^−) and of dead cells (Annexin V^+/PI^+) was determined by flow cytometric analysis of each population.
Induction of Apoptosis. […] At designated time points cells were removed from cultures and the degrees of apoptosis and cell death were determined by Annexin V binding to the cell surface and loss of propidium iodide (PI) inclusion respectively (FIG. 5).
Where [5] appears, read: ADC, 2 h binding, washed, additional 92 h, Raji.

pIC50: −log10 of the molar value. Read-outs that look alike come from different tables or passages of the source. Square brackets hold non-standard residues; d marks the D form. Peptide text beside a SMILES is read from it. * marks the point of attachment. Dolaproine = CO[C@@H]([C@@H]1CCCN1)[C@@H](C)C(=O)O; Dil = CC[C@H](C)[C@H](NC)[C@@H](CC(=O)O)OC; X1 = C[C@@H](N*)[C@@H](O)c1ccccc1; NMeV = CN[C@H](C(=O)O)C(C)C Where only a bound is given, the exact number is not on record here.

Method for Ramos NHL cells: For the localized non Hodgkin's lymphoma model, 2×10^6 Ramos NHL cells were implanted into the right flank of SCID mice. […] Treatment consisted of intraperitoneal injections of mAb or ADC every 4 days for 3 injections. Tumor size was determined using the formula (L×W^2)/2.
SCID mice were implanted with 5×10^6 Ramos cells into the flank and the tumor size in each group of 5 animals was allowed to progress to an average size of 100 mm^3 before therapy with mAb or ADCs was initiated. Treatment consisted of intraperitoneal injections of mAb or ADC every 4 days for 3 injections using 1 and 3 mg/kg/injection.

With `CC[C@H](C)[C@@H]([C@@H](CC(=O)N1CCC[C@H]1[C@H](OC)[C@@H](C)C(=O)N[C@H](C)[C@@H](O)c1ccccc1)OC)N(C)C(=O)[C@@H](NC(=O)[C@H](C(C)C)N(C)C)C(C)C` [Auristatin E], the “times more potent than doxorubicin” value in [1] is on record as > 50 times.

In general, pIC50 refers to −log10 of the IC50, conventionally taken in molar units. Regarding `COc1cccc2c1C(=O)c1c(O)c3c(c(O)c1C2=O)C[C@@](O)(C(=O)CO)C[C@@H]3O[C@H]1C[C@H](N)[C@H](O)[C@H](C)O1` [Doxorubicin, doxorubicin, reference compound], the pIC50 in the assay with Daudi cells (unconjugated drug, 2 h exposure, washed, additional 92 h, Daudi (CD20+), read-out: IC50) was 6.85; in the assay with Raji cells (unconjugated drug, 2 h exposure, washed, additional 92 h, Raji (CD20+), read-out: IC50), 6.70; in the assay on Karpas 299 cells (unconjugated drug, 2 h exposure, washed, additional 92 h, Karpas (CD20-), read-out: IC50), 6.19; with Ramos cells [2] (unconjugated drug, 2 h exposure, washed, additional 92 h, Ramos (CD20+), read-out: IC50) it was 6.65.

For `CC[C@H](C)[C@@H]([C@@H](CC(=O)N1CCC[C@H]1[C@H](OC)[C@@H](C)C(=O)N[C@H](C)[C@@H](O)c1ccccc1)OC)N(C)C(=O)[C@@H](NC(=O)[C@@H](NC)C(C)C)C(C)C` [MMAE, monomethyl Auristatin E] (H-[NMeV]V[Dil][Dolaproine]-X1), the “Activity Ratio MMAE/Doxorubicin” value in the assay with Daudi cells (Daudi (CD20+)) is on record as 215.4; in the assay on Raji cells (Raji (CD20+)), 57.1; in the assay with Karpas 299 cells (Karpas (CD20-)) it was 216.7; with Ramos cells [2] (Ramos (CD20+)) it was 225.0. Besides, the pIC50 is 9.19 in the assay with Daudi cells (Daudi), 8.46 in the assay with Raji cells (Raji), 8.52 in the assay with Karpas 299 cells and 9.00 in the assay with Ramos cells [2] (Ramos).

The term IC50 denotes the point on the concentration scale where inhibition reaches its midpoint. Lower therefore signals greater potency in that assay. With Rituxan-vcDox [reference compound], the IC50 in the assay on Daudi cells (washed, additional 92 h, Daudi) was >50 µg/mL; in the assay on Raji cells (setting [5]), >50 µg/mL; with Karpas 299 cells (washed, additional 92 h), >50 µg/mL; in the assay on Ramos cells [2] (ADC, 2 h binding, washed, additional 92 h, Ramos), >50 µg/mL. Also, in the assay on Raji cells (Raji cells, up to 50 ug/ml), the “toxicity at the highest levels tested” value is “did not affect significant toxicity”. Besides, the “cellular localization (equatorial section)” value in the assay with Ramos cells [3] was “remained primarily on the surface”.

Turning to “Rituximab-valine-citrulline-monomethyl Auristatin E [Rituxan-vcMMAE]”, the IC50 is 2 µg/mL in the assay with Daudi cells (washed, additional 92 h, Daudi); 1.4 µg/mL in the assay on Raji cells (ADC on Raji cells (FIG. 4A)); 1.5 µg/mL with Raji cells (setting [5]); >50 µg/mL with Karpas 299 cells (washed, additional 92 h); 0.05 µg/mL with CD20-positive cells; 0.045 µg/mL in the assay with Ramos cells [2] (ADC on Ramos cells (FIG. 4B)). Moreover, the “delay in tumor growth” value in the assay on Ramos NHL cells was “significant delay in tumor growth”. Moreover, the “cellular localization (equatorial section)” value in the assay on Ramos cells [3] is given as “localized to the cell interior within 4 h”. Also, in the assay with Ramos cells [4], the “percentage of apoptotic cells” value was determined as 19%. Moreover, in the assay with Ramos cells [4], the “percentage of dead cells” value is 60%.
